Reference: ChEMBL document CHEMBL1201862, “PubChem BioAssay data set” (2004)
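Cells were grown in 96-well plates and exposed to each compound for 48 hours at five concentrations; endpoints were interpolated linearly between bracketing concentrations, or set to the highest concentration if not reached. GI50 = concentration required for 50% inhibition of growth.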 Activity calls are given as the source filed them. Rule as the data show it: active = GI50 up to about 1.1 µM and inactive = higher.

Columns and labels:
Experiment in all cases: DTP human tumour cell line panel, 48 h
HOP-62 = system: HOP-62
ACHN = system: ACHN
PC-3 = system: PC-3
SF-539 = system: SF-539
OVCAR-8 = system: OVCAR-8
TK-10 = system: TK-10
UO-31 = system: UO-31
786-0 = system: 786-0
RXF 393 = system: RXF 393
SK-OV-3 = system: SK-OV-3
MDA-MB-231 = system: MDA-MB-231
K562 = system: K562
HT-29 = system: HT-29
IGROV-1 = system: IGROV-1
T47D = system: T47D
HOP-92 = system: HOP-92
NCI-H226 = system: NCI-H226
MOLT-4 = system: MOLT-4
CCRF-CEM = system: CCRF-CEM
A498 = system: A498
LOX IMVI = system: LOX IMVI
SW-620 = system: SW-620
SNB-19 = system: SNB-19
NCI/ADR-RES = system: NCI/ADR-RES
MDA-MB-435 = system: MDA-MB-435
MDA-N = system: MDA-N
DU-145 = system: DU-145
NCI-H23 = system: NCI-H23
HCT-116 = system: HCT-116
HL-60 = system: HL-60
Hs-578T = system: Hs-578T
SF-268 = system: SF-268
HCC 2998 = system: HCC 2998
COLO 205 = system: COLO 205
OVCAR-4 = system: OVCAR-4
BT-549 = system: BT-549
OVCAR-3 = system: OVCAR-3
UACC-257 = system: UACC-257
UACC-62 = system: UACC-62
SK-MEL-2 = system: SK-MEL-2
HCT-15 = system: HCT-15
KM12 = system: KM12
U-251 = system: U-251
RPMI-8226 = system: RPMI-8226
SN12C = system: SN12C
NCI-H522 = system: NCI-H522
OVCAR-5 = system: OVCAR-5
CAKI-1 = system: CAKI-1
EKVX = system: EKVX
Malme-3M = system: Malme-3M
M14 = system: M14
NCI-H460 = system: NCI-H460
MCF7 = system: MCF7
SK-MEL-5 = system: SK-MEL-5
A549 = system: A549
SF-295 = system: SF-295
SNB-75 = system: SNB-75

Measured: GI50

O=C1C=CC(=O)C(CNc2ccc(C(=O)OC34CC5CC(CC(C5)C3)C4)cc2)=C1Br
5.19 µM: HCT-15
active: NCI-H522 0.435 µM
inactive: HOP-62 19 µM | ACHN 14.6 µM | PC-3 4.76 µM | SF-539 1.59 µM | OVCAR-8 5.51 µM | TK-10 13.9 µM | UO-31 6.75 µM | 786-0 13.2 µM | RXF 393 4.98 µM | SK-OV-3 17.3 µM | MDA-MB-231 10.2 µM | K562 5.58 µM | HT-29 5.01 µM | IGROV-1 3.73 µM | T47D 3.33 µM | HOP-92 2.34 µM | NCI-H226 16.7 µM | MOLT-4 2.24 µM | CCRF-CEM 1.99 µM | A498 17.9 µM | LOX IMVI 9.48 µM | SW-620 18.2 µM | SNB-19 15.6 µM | NCI/ADR-RES 3.82 µM | MDA-MB-435 14.7 µM | MDA-N 15.6 µM | DU-145 23.6 µM | NCI-H23 7.35 µM | HCT-116 12.7 µM | HL-60 1.66 µM | Hs-578T 6.35 µM | SF-268 12.2 µM | HCC 2998 12.4 µM | COLO 205 7.29 µM | OVCAR-4 5.19 µM | BT-549 5.33 µM | OVCAR-3 13.5 µM | UACC-257 13.5 µM | UACC-62 7.38 µM | SK-MEL-2 15.4 µM | KM12 5.62 µM | U-251 4 µM | RPMI-8226 5.6 µM | SN12C 11.1 µM | OVCAR-5 16.7 µM | CAKI-1 3.52 µM | EKVX 6.46 µM | Malme-3M 4.9 µM | M14 13.4 µM | NCI-H460 11.5 µM | MCF7 15.9 µM | SK-MEL-5 9.31 µM | A549 13.3 µM | SF-295 14.1 µM | SNB-75 6.15 µM
